Laboratory results reported in PubChem BioAssay (NCI).
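Values below derive from 48-hour exposures of cells grown in 96-well plates, with endpoints linearly interpolated between the two concentrations bracketing the appropriate inhibition level. At the GI50, growth is halved. TGI: total growth inhibition.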

How the values were obtained:
Test in all cases: inhibition of tumour cell growth, NCI panel, 48 h
[1] = tested on: BT-549 breast
[2] = tested on: MALME-3M melanoma
[3] = tested on: DU-145 prostate
[4] = tested on: HCT-15 colon
[5] = tested on: COLO 205 colon
[6] = tested on: CCRF-CEM leukemia
[7] = tested on: PC-3 prostate
[8] = tested on: LOX IMVI melanoma
[9] = tested on: SW-620 colon
[10] = tested on: CAKI-1 renal
[11] = tested on: HCC-2998 colon
[12] = tested on: UACC-62 melanoma
[13] = tested on: MDA-MB-231 breast
[14] = tested on: OVCAR-3 ovarian
[15] = tested on: NCI/ADR-RES ovarian
[16] = tested on: UO-31 renal
[17] = tested on: HOP-92 NSCLC
[18] = tested on: MOLT-4 leukemia
[19] = tested on: A498 renal
[20] = tested on: SK-MEL-28 melanoma
[21] = tested on: U251 CNS
[22] = tested on: UACC-257 melanoma
[23] = tested on: SR leukemia
[24] = tested on: MDA-MB-435
[25] = tested on: SK-OV-3 ovarian
[26] = tested on: T-47D breast
[27] = tested on: TK-10 renal
[28] = tested on: NCI-H226 lung
[29] = tested on: RPMI-8226 leukemia
[30] = tested on: RXF 393 renal
[31] = tested on: 786-0 renal
[32] = tested on: HCT-116 colon
[33] = tested on: SNB-75 CNS
[34] = tested on: SNB-19 CNS
[35] = tested on: SK-MEL-5 melanoma
[36] = tested on: MCF7 breast
[37] = tested on: K-562 leukemia
[38] = tested on: HL-60(TB) leukemia
[39] = tested on: NCI-H522 lung
[40] = tested on: HS 578T breast
[41] = tested on: M14 melanoma
[42] = tested on: A549 NSCLC
[43] = tested on: HT29 colon
[44] = tested on: SF-295 CNS
[45] = tested on: OVCAR-4 ovarian
[46] = tested on: SK-MEL-2 melanoma
[47] = tested on: HOP-62 NSCLC
[48] = tested on: SN12C renal
[49] = tested on: NCI-H460 lung
[50] = tested on: IGROV1 ovarian
[51] = tested on: SF-539 CNS
[52] = tested on: SF-268 CNS
[53] = tested on: ACHN renal
[54] = tested on: KM12 colon
[55] = tested on: EKVX NSCLC
[56] = tested on: OVCAR-5 ovarian
[57] = tested on: OVCAR-8 ovarian
[58] = tested on: NCI-H23 lung

## COc1cc(/C=C/C(=O)c2c(C)n([O-])c3ccccc3[n+]2=O)cc(OC)c1OC
[1]
  GI50: 3.18 µM
  TGI: 13.5 µM
[2]
  GI50: 11.4 µM
  TGI: 26.7 µM
[3]
  GI50: 2.17 µM
  TGI: 13.5 µM
[4]
  GI50: 4 µM
  TGI: 15.6 µM
[5]
  GI50: 9.08 µM
  TGI: 24.9 µM
[6]
  GI50: 3.66 µM
  TGI: 23.3 µM
[7]
  GI50: 4.45 µM
  TGI: 19.3 µM
[8]
  GI50: 5.25 µM
  TGI: 17.4 µM
[9]
  GI50: 4.99 µM
  TGI: 17.1 µM
[10]
  GI50: 7.61 µM
  TGI: 20.7 µM
[11]
  GI50: 8.77 µM
  TGI: 22.3 µM
[12]
  GI50: 11.3 µM
  TGI: 23.3 µM
[13]
  GI50: 9.57 µM
  TGI: 22.4 µM
[14]
  GI50: 5.17 µM
  TGI: 18.6 µM
[15]
  GI50: 4.02 µM
  TGI: 20 µM
[16]
  GI50: 4.5 µM
  TGI: 17.5 µM
[17]
  GI50: 3.47 µM
  TGI: 15.7 µM
[18]
  GI50: 3.38 µM
  TGI: 40.7 µM
[19]
  GI50: 3.97 µM
  TGI: 17.8 µM
[20]
  GI50: 11.2 µM
  TGI: 28.9 µM
[21]
  GI50: 5.14 µM
  TGI: 17.2 µM
[22]
  GI50: 6.48 µM
  TGI: 20.5 µM
[23]
  GI50: 2.75 µM
  TGI: 14.9 µM
[24]
  GI50: 5.4 µM
  TGI: 22.5 µM
[25]
  GI50: 11 µM
  TGI: 25.5 µM
[26]
  GI50: 8.71 µM
  TGI: 28.7 µM
[27]
  GI50: 11.3 µM
  TGI: 24 µM
[28]
  GI50: 15.2 µM
  TGI: 34 µM
[29]
  GI50: 3.58 µM
  TGI: 22.8 µM
[30]
  GI50: 5.85 µM
  TGI: 20.4 µM
[31]
  GI50: 6.94 µM
  TGI: 20.1 µM
[32]
  GI50: 2.56 µM
  TGI: 13.8 µM
[33]
  GI50: 12.5 µM
  TGI: 30.8 µM
[34]
  GI50: 10.5 µM
  TGI: 23.3 µM
[35]
  GI50: 3.62 µM
  TGI: 13.4 µM
[36]
  GI50: 3.18 µM
  TGI: 13.4 µM
[37]
  GI50: 5.88 µM
  TGI: > 100 µM
[38]
  GI50: 5.24 µM
  TGI: > 100 µM
[39]
  GI50: 8.73 µM
  TGI: 24 µM
[40]
  GI50: 3.51 µM
  TGI: 21 µM
[41]
  GI50: 5.28 µM
  TGI: 18.8 µM
[42]
  GI50: 8.69 µM
  TGI: 21.6 µM
[43]
  GI50: 10.7 µM
  TGI: 22.9 µM
[44]
  GI50: 4.34 µM
  TGI: 14.8 µM
[45]
  GI50: 10.8 µM
  TGI: > 100 µM
[46]
  GI50: 4.63 µM
  TGI: 17.2 µM
[47]
  GI50: 12.4 µM
  TGI: 24.9 µM
[48]
  GI50: 5.82 µM
  TGI: 20.3 µM
[49]
  GI50: 3.63 µM
  TGI: 13.1 µM
[50]
  GI50: 3.99 µM
  TGI: 15.6 µM
[51]
  GI50: 11.5 µM
  TGI: 23.7 µM
[52]
  GI50: 5.65 µM
  TGI: 25.7 µM
[53]
  GI50: 10.8 µM
  TGI: 22.7 µM
[54]
  GI50: 10.7 µM
  TGI: 24.7 µM
[55]
  GI50: 2.43 µM
  TGI: 6.86 µM
[56]
  GI50: 11.6 µM
  TGI: 24.6 µM
[57]
  GI50: 4.43 µM
  TGI: 17.7 µM

## COc1ccc(C2=C(c3ccc(OC)cc3)C(=O)OC2)cc1
[58]
  GI50: 3.46 µM
  TGI: 30.8 µM
[1]
  GI50: 11.7 µM
  TGI: > 100 µM
[2]
  GI50: 3.91 µM
  TGI: 35.4 µM
[3]
  GI50: 2.38 µM
  TGI: > 46.6 µM
[4]
  GI50: 0.514 µM
  TGI: 8.27 µM
[5]
  GI50: 1.38 µM
  TGI: > 100 µM
[6]
  GI50: 3.29 µM
  TGI: 18.5 µM
[7]
  GI50: 5.19 µM
  TGI: 44.1 µM
[8]
  GI50: 0.964 µM
  TGI: 15.1 µM
[9]
  GI50: 0.361 µM
  TGI: > 42.5 µM
[10]
  GI50: 0.489 µM
  TGI: 14.8 µM
[11]
  GI50: 0.264 µM
  TGI: 14.5 µM
[12]
  GI50: 1.3 µM
  TGI: 20.6 µM
[13]
  GI50: 5.15 µM
  TGI: > 39.3 µM
[14]
  GI50: 0.216 µM
  TGI: 0.712 µM
[15]
  GI50: 2.89 µM
  TGI: 28.4 µM
[16]
  GI50: 3.18 µM
  TGI: > 43.5 µM
[17]
  GI50: 7.45 µM
  TGI: 51.9 µM
[18]
  GI50: 1.29 µM
  TGI: 23.8 µM
[19]
  GI50: 0.528 µM
  TGI: 3.66 µM
[20]
  GI50: 6.29 µM
  TGI: > 100 µM
[21]
  GI50: 0.421 µM
  TGI: 3.46 µM
[22]
  GI50: 40.1 µM
  TGI: > 100 µM
[23]
  GI50: 0.238 µM
  TGI: 0.663 µM
[24]
  GI50: 0.0752 µM
  TGI: 0.4 µM
[25]
  GI50: 2.2 µM
  TGI: > 100 µM
[26]
  GI50: 8.89 µM
  TGI: > 65.6 µM
[27]
  GI50: 1.1 µM
  TGI: 8.01 µM
[28]
  GI50: 3.2 µM
  TGI: 31.4 µM
[29]
  GI50: 1.71 µM
  TGI: 11.4 µM
[30]
  GI50: 1.05 µM
[31]
  GI50: 2.11 µM
  TGI: 10.9 µM
[32]
  GI50: 1.97 µM
  TGI: 11.8 µM
[33]
  GI50: 3.16 µM
  TGI: > 100 µM
[34]
  GI50: 2.34 µM
  TGI: > 100 µM
[35]
  GI50: 0.472 µM
  TGI: 5.9 µM
[36]
  GI50: 0.492 µM
  TGI: 16.2 µM
[37]
  GI50: 1.24 µM
  TGI: 24.3 µM
[38]
  GI50: 0.525 µM
  TGI: 4.58 µM
[39]
  GI50: 0.342 µM
  TGI: 1.85 µM
[40]
  GI50: 0.604 µM
  TGI: 3.93 µM
[41]
  GI50: 1.64 µM
  TGI: 12.4 µM
[42]
  GI50: 2.57 µM
  TGI: > 100 µM
[43]
  GI50: 0.437 µM
  TGI: > 100 µM
[44]
  GI50: 0.549 µM
[45]
  GI50: 16 µM
  TGI: > 100 µM
[46]
  GI50: 1.48 µM
  TGI: > 48.6 µM
[47]
  GI50: 2.25 µM
  TGI: 24.6 µM
[48]
  GI50: 7.68 µM
  TGI: 42.2 µM
[49]
  GI50: 0.893 µM
  TGI: 17.7 µM
[50]
  GI50: 5.03 µM
  TGI: > 100 µM
[51]
  GI50: 0.745 µM
  TGI: 6.67 µM
[52]
  GI50: 1.52 µM
  TGI: 27.6 µM
[53]
  GI50: 2.72 µM
  TGI: 23.4 µM
[54]
  GI50: 0.555 µM
  TGI: > 37.7 µM
[55]
  GI50: 16.1 µM
  TGI: > 100 µM
[56]
  GI50: 20.2 µM
  TGI: > 100 µM
[57]
  GI50: 1.35 µM
  TGI: > 52.3 µM
